Measured values published in patent US10328093B2, “Anthracycline formulations” (CYTRX CORPORATION, priority 2012, dated 2019).
Where “and” joins values, the source holds several entries; their conditions need not be identical. Equal values may be shown once.

Legend:
rats = settings: acute and repeat-dose; cited from earlier work
advanced cancer patients = settings: Phase 1, 41 advanced cancer patients, cited from earlier work
mice = settings: acute and repeat-dose; cited from earlier work
dogs = settings: acute and repeat-dose; cited from earlier work
[1] = Stability of DOXO-EMCH in DI water with manual pH adjustment (RP-HPLC); assay type: physicochemical; settings: for DOXO-EMCH / Doxorubicin: ~2.0 mg/mL in DI Water, manual pH adjustment to pH ~6.1 at 30 minute intervals
Protocol: (§1) To analyze DOXO-EMCH's behavior in solution, a reversed-phase (RP) HPLC method for quantitation of DOXO-EMCH and various impurities and degradation products was utilized. Samples (1.0 μL injection volume) were assayed on an HPLC system fitted with a Phenomenex Gemini C18 column 100×2.0 mm, 3 μm at a flow rate of 0.3 mL/min. The mobile phase used was an acetate/acetonitrile gradient. The degradation product EMCH could not be detected using the above HPLC method, and was therefore determined using a liquid chromatography-mass spectrometry (LC-MS) method.
An additional study was performed to obtain data on the stability of DOXO-EMCH dissolved in DI water with manual pH adjustment. The initial pH of the DOXO-EMCH solution (˜2.0 mg/mL) dissolved in DI Water was 5.4. At 30 minute intervals, the pH of the DOXO-EMCH solution was checked and adjusted to pH ˜6.1 by the dropwise addition of a 0.1 N NaOH solution.

[2] = IV bag solution stability study of DOXO-EMCH API (0.9% NaCl, D5W, LR); assay type: physicochemical; settings: for solubility: ~2 mg/mL
Protocol: as §1
To obtain baseline data on the stability of DOXO-EMCH at the point of use, a study was designed to determine degradation of DOXO-EMCH when combined with candidate intravenous (IV) bag solutions. IV bag solutions including Dextrose 5% in Water (D5W), Lactated Ringers (LR), and Sodium Chloride Solution 0.9% (Normal Saline; NS) were used. 100 mg of DOXO-EMCH active pharmaceutical ingredient (API) were dissolved in 50 mL of the IV bag solution for a concentration of ˜2 mg/mL DOXO-EMCH API. The IV bag solutions containing API were then aliquoted in glass vials. The vials were stored at 25° C. in a stability chamber for the length of the experiment. Prior to the beginning of the IV bag stability study, all IV bag solutions were tested for pH and the presence of any peaks interfering with DOXO-EMCH or any degradation peaks of interest. Samples were pulled at 0 hr, 2 hr, 4 hr, and 6 hr time intervals and tested for pH and in duplicate by HPLC.
Tables 8-10 below list the results for the IV bag study using 0.9% NaCl, D5W, and Lactated Ringer's Solution. In summary, the 0.9% NaCl and Lactated Ringer's solutions met the goal of less than 3% doxorubicin over 3-5 hours. […] The sample was opaque and precipitated material visibly settled over a 2-hour period. […] The samples were mixed well before dilution of each sample for HPLC assay, but non-homogeneity of these samples is reflected in the DOXO-EMCH recovery values for those two IV bag solutions. […] The pH for D5W was the lowest of all the IV bag solutions tested.

[3] = Solubility and stability of lyophilized DOXO-EMCH reconstituted in diluents at 10 mg/mL; assay type: physicochemical; settings: for pH: ambient conditions
Protocol: as §1
Having established preliminary information on DOXO-EMCH's properties when dissolved in NS, LR, and D5W, a follow-up study was designed to evaluate (1) the solubility and stability of DOXO-EMCH in selected diluents upon reconstitution and (2) the subsequent stability of various IV Admixtures. Diluents included Sterile Water for Injection (SWFI), Lactated Ringers Solution (LR), and 50% (v/v) ethanol/SWFI.
The study evaluating solubility and stability of lyophilized DOXO-EMCH reconstituted in SWFI, LR, and 50% (v/v) ethanol/SWFI was conducted using a target DOXO-EMCH concentration of 10 mg/mL. To obtain a 10 mg/mL concentration, 20 mL of diluent was added to a vial containing 200 mg of lyophilized DOXO-EMCH, and the vial was gently swirled to dissolve the contents and obtain a homogeneous mixture. The sample was mixed and visually inspected for complete reconstitution to a clear solution for a) approximately 30 seconds, b) approximately 60 seconds, and c) 120 seconds, then up to a total of 10 minutes. If more than 120 seconds were required for visual clarity, the vial may have been intermittently swirled up to a maximum of 10 minutes. Duplicate vials were prepared for each study. Each vial was assessed 10 minutes and 20 minutes after the addition of reconstitution diluent for visual appearance of the reconstituted solution and sampled at these time points for determination of DOXO-EMCH content, doxorubicin content, and solution pH. If a given diluent was determined to provide acceptable solubilization and stability of the vial contents after 20 minutes at ambient conditions, the diluent proceeded directly to part 2 of the study.
The reconstituted solution was evaluated for color, clarity, and absence of insoluble material in the vial after every 30 seconds of mixing. Following addition of the reconstituted drug product solution to the IV bag, the resulting IV Admixture was evaluated for color, clarity, and absence of any insoluble material immediately after mixing and at each analytical time point. The amount (area %) of the degradation product doxorubicin was determined at each time point.

[4] = ~2 mg/mL API in 0.9% NaCl IV solution, 25° C., 0 hr
[5] = ~2 mg/mL API in 0.9% NaCl IV solution, 25° C., 2 hr
[6] = ~2 mg/mL API in 0.9% NaCl IV solution, 25° C., 4 hr
[7] = ~2 mg/mL API in 0.9% NaCl IV solution, 25° C., 6 hr
[8] = ~2 mg/mL API in D5W IV solution, 25° C., 0 hr
[9] = ~2 mg/mL API in D5W IV solution, 25° C., 2 hr
[10] = ~2 mg/mL API in D5W IV solution, 25° C., 4 hr
[11] = ~2 mg/mL API in D5W IV solution, 25° C., 6 hr
[12] = ~2 mg/mL API in LR IV solution, 25° C., 0 hr
[13] = ~2 mg/mL API in LR IV solution, 25° C., 2 hr
[14] = ~2 mg/mL API in LR IV solution, 25° C., 4 hr
[15] = ~2 mg/mL API in LR IV solution, 25° C., 6 hr

COc1cccc2c1C(=O)c1c(O)c3c(c(O)c1C2=O)C[C@@](O)(/C(CO)=N/NC(=O)CCCCCN1C(=O)C=CC1=O)C[C@@H]3O[C@H]1C[C@H](N)[C@H](O)[C@H](C)O1.Cl [DOXO-EMCH]
tolerance compared to doxorubicin (rats): significantly higher tolerance
tumor response (advanced cancer patients; in some cases): induced tumor regression
clinical safety (advanced cancer patients): safe for clinical use
tolerance compared to doxorubicin (mice): significantly higher tolerance
tolerance compared to doxorubicin (dogs): significantly higher tolerance
initial pH of the DOXO-EMCH solution ([1]; ~2.0 mg/mL dissolved in DI Water, before adjustment): 5.4
DOXO-EMCH ([1]; 0 hr): 98.8 wt %
Doxorubicin ([1]; 0 hr): 0.5 wt %
DOXO-EMCH ([1]; 2 hr): 91.8 wt %
Doxorubicin ([1]; 2 hr): 2.4 wt %
DOXO-EMCH ([1]; 4 hr): 85.6 wt %
Doxorubicin ([1]; 4 hr): 3.6 wt %
DOXO-EMCH ([1]; 6 hr): 80.6 wt %
Doxorubicin ([1]; 6 hr): 4.3 wt %
doxorubicin over 3-5 hours (goal) ([2]; 0.9% NaCl IV solution, 25° C.): less than 3%
degradation over a 6 hour period ([2]; D5W solution, 25° C.): significant degradation of DOXO-EMCH and formation of doxorubicin
doxorubicin over 3-5 hours (goal) ([2]; Lactated Ringer's solution, 25° C.): less than 3%
solubility ([2]; in 0.9% NaCl): not completely soluble
solubility ([2]; in D5W): completely soluble
solubility ([2]; in Lactated Ringer's): not completely soluble
Doxorubicin [2, 4]: 0.3 wt %
pH [2, 4]: 6.5
Doxorubicin [2, 5]: 0.9 wt %
pH [2, 5]: 6.0
Doxorubicin [2, 6]: 2.1 wt %
pH [2, 6]: 5.6
Doxorubicin [2, 7]: 2.6 wt %
pH [2, 7]: 5.7
Doxorubicin [2, 8]: 1.6 wt %
pH [2, 8]: 5.5
Doxorubicin [2, 9]: 5.8 wt %
pH [2, 9]: 5.0
Doxorubicin [2, 10]: 11.2 wt %
pH [2, 10]: 4.9
Doxorubicin [2, 11]: 16.8 wt %
pH [2, 11]: 4.8
Doxorubicin [2, 12]: 0.2 wt %
pH [2, 12]: 6.3
Doxorubicin [2, 13]: 0.5 wt %
pH [2, 13]: 6.1
Doxorubicin [2, 14]: 0.9 wt %
pH [2, 14]: 6.0
Doxorubicin [2, 15]: 1.6 wt %
pH [2, 15]: 5.9
solubility ([3]; in ethanol:water): completely soluble
time to go into solution ([3]; in ethanol:water): within less than a minute
mixing time until solutions appeared visually clear ([3]; reconstituted in 50:50 ethanol:water at 10 mg/mL): 120 s
pH ([3]; reconstituted in 50:50 ethanol:water at 10 mg/mL, 10 minutes): 5.9
pH ([3]; reconstituted in 50:50 ethanol:water at 10 mg/mL, 20 minutes): 5.7 and 5.8
mixing time until solutions appeared visually clear ([3]; reconstituted in LR at 10 mg/mL): 120 s
pH ([3]; reconstituted in LR at 10 mg/mL, 10 minutes): 6.0 and 5.9
pH ([3]; reconstituted in LR at 10 mg/mL, 20 minutes): 5.9 and 5.8
pH ([3]; reconstituted in SWFI at 10 mg/mL, 10 minutes): 5.4 and 5.3
pH ([3]; reconstituted in SWFI at 10 mg/mL, 20 minutes): 5.1 and 5.5
mixing time until solutions appeared visually clear ([3]; reconstituted in SWFI at 10 mg/mL, a few undissolved particles remained): 90 to 120 s
